ChEMBL document CHEMBL6092194, “Development of membrane-targeting chalcone derivatives as antibacterial agents against multidrug-resistant bacteria” (Eur J Med Chem, 2024)
Active and inactive are the calls of the source. The calls are words filed in the database; no cut-off is given here.

Tests used:
[1] = test system: Staphylococcus epidermidis; assay: Antibacterial activity against erythromycin-susceptible Staphylococcus epidermidis ATCC12228 by broth microdilution assay; type: functional
Escherichia coli [2] = assay: Antibiofilm activity against Escherichia coli ATCC25922 assessed as inhibition of biofilm formation at 1 microg/ml relative to control; type: functional
Staphylococcus aureus [3] = assay: Antibiofilm activity against Staphylococcus aureus ATCC43300 assessed as inhibition of biofilm formation at 8 microg/ml relative to control; type: functional
Cell membrane [4] = assay: Disruption of cell membrane in Staphylococcus aureus ATCC43300 assessed as appearance of blue fluorescence by DAPI staining based fluorescence microscopic analysis
Cell membrane [5] = assay: Disruption of cell membrane in Staphylococcus aureus ATCC43300 assessed as appearance of red fluorescence by PI staining based fluorescence microscopic analysis
Staphylococcus aureus [6] = assay: (§1) Antibacterial activity against Staphylococcus aureus ATCC43300 infected in sepsis mouse model assessed as reduction in inflammatory cell infiltration in spleen at 10 mg/kg pre-infected with bacteria for 1 hrs followed by compound administration at 12 hrs interval for 2 days by H and E staining based analysis; type: functional, organism-based; details: time 2.0 day
Escherichia coli [7] = assay: as §1, with “Escherichia coli ATCC25922” for “Staphylococcus aureus ATCC43300”; type: functional, organism-based; details: time 2.0 day

SMILES: CCCCCCOc1cc[n+](CCCOc2ccc(/C=C/C(=O)c3ccc(OCCC[n+]4ccc(OCCCCCC)cc4)cc3)cc2)cc1.[Br-].[Br-]
- MIC [1]: 0.5 µg/mL
- inhibition at 1 µg/mL (Escherichia coli [2]): 12.3%
- inhibition at 8 µg/mL (Staphylococcus aureus [3]): 90.8%
- Activity (Cell membrane [4]): Active
- Activity (Cell membrane [5]): Active
- Activity (Staphylococcus aureus [6]): inactive
- Activity (Escherichia coli [7]): inactive
